The nature of this data set: Compound was tested for toxicity (lethal dose) in male white swiss mice. It is filed as organism-based. The settings on record: mouse, in vivo.

Each structure is given as a SMILES string.

We go through five compounds from ChEMBL document CHEMBL1121572, “Synthetic and preliminary hemodynamic and whole animal toxicity studies on (R,S)-, (R)-, and (S)-2-methyl-3-(2,4,5-trihydroxyphenyl)alanine” (J Med Chem, 1980).

A word on the LD50: it is the dose expected to kill half of the subjects tested.

For `CC(N)Cc1cc(O)c(O)cc1O` (racemic), the LD50 came out at 320 mg/kg.
`CC(N)(Cc1ccc(O)c(O)c1)C(=O)O` (racemic) [METHYLDOPA (RACEMIC)] yielded an LD50 of 1320 mg/kg.
With `C[C@](N)(Cc1ccc(O)c(O)c1)C(=O)O` [METHYLDOPA], the LD50 was 1890 mg/kg.
In the case of `CC(N)Cc1ccc(O)c(O)c1` (racemic), the LD50 was determined as 576 mg/kg.
`CC(N)(Cc1cc(O)c(O)cc1O)C(=O)O` (racemic): the LD50 is 289 mg/kg. Against the preceding compound, the LD50 is about 2-fold lower.
